# Test results from EP0908457B1, “3-(1,2-benzisothiazol- and isoxazol-5-Y1)-2,4(1H,3H)-pyrimidinedione or thione and 3-(1,2-benzisothiazol- and isoxazol-5-y1)-4(3H)-pyrimidinone or thione herbicidal agents” (BASF AKTIENGESELLSCHAFT, priority 1997, dated 1999).
# Columns and labels:
# Cyperus iria [1] = assay: Postemergence weed control under flooded paddy conditions, CYPIR (Rice Flatsedge); assay type: in vivo; conditions: rated three to four weeks after treatment
# [2] = system: Cyperus serotinus, Rottb.; assay: Postemergence weed control under flooded paddy conditions, CYPSE (Flatsedge); assay type: in vivo; conditions: rated three to four weeks after treatment
# [3] = system: Echinochloa oryzoides (Ard.) Fritsch.; assay: Preemergence weed control under flooded paddy conditions, ECHORC (Watergrass (Calif.)); assay type: in vivo; conditions: flooded paddy; for ECHORC: preemergence weeds, herbicidal effect rating 0-9, three to four weeks after treatment; for herbicidal effect rating, ECHORC: preemergence, rated three to four weeks after treatment
# Sagittaria pygmaea, L. [4] = assay: Postemergence weed control under flooded paddy conditions, SAGPY (Arrowhead (Pygmaea)); assay type: in vivo; conditions: rated three to four weeks after treatment
# Sagittaria pygmaea, L. [5] = assay: Preemergence weed control under flooded paddy conditions, SAGPY (Arrowhead (Pygmaea)); assay type: in vivo; conditions: flooded paddy; for SAGPY: preemergence weeds, herbicidal effect rating 0-9, three to four weeks after treatment; for herbicidal effect rating, SAGPY: preemergence, rated three to four weeks after treatment
# [6] = system: Oryza sativa, (L.) Tebonnet; assay: Rice tolerance to post-transplant applications under flooded paddy conditions (Example 187), ORYSAT (Rice, Tebonnet); conditions: for ORYSAT: herbicidal effect rating 0-9, three to four weeks after treatment; for herbicidal effect rating ORYSAT: rated three to four weeks after treatment; on herbicidal effect rating ORYSAT: meaning of each grade not given here
# [7] = system: Cyperus serotinus, Rottb.; assay: Preemergence weed control under flooded paddy conditions, CYPSE (Flatsedge); assay type: in vivo; conditions: for CYPSE: preemergence weeds, herbicidal effect rating 0-9, three to four weeks after treatment; for herbicidal effect rating, CYPSE: preemergence, rated three to four weeks after treatment
# [8] = system: Echinochloa oryzoides (Ard.) Fritsch.; assay: Postemergence weed control under flooded paddy conditions, ECHORC (Watergrass (Calif.)); assay type: in vivo; conditions: rated three to four weeks after treatment
# [9] = system: Oryza sativa, (L.) Tebonnet; assay: Rice tolerance to post-transplant applications under flooded paddy conditions (Example 188), ORYSAT (Rice, Tebonnet); conditions: rated three to four weeks after treatment
# [10] = system: Monochoria vaginalis, Presl.; assay: Preemergence weed control under flooded paddy conditions, MOOVA (Monochoria); assay type: in vivo; conditions: flooded paddy; for MOOVA: preemergence weeds, herbicidal effect rating 0-9, three to four weeks after treatment; for herbicidal effect rating, MOOVA: preemergence, rated three to four weeks after treatment
# [11] = system: Monochoria vaginalis, Presl.; assay: Postemergence weed control under flooded paddy conditions, MOOVA (Monochoria); assay type: in vivo; conditions: rated three to four weeks after treatment
# Cyperus iria [12] = assay: Preemergence weed control under flooded paddy conditions, CYPIR (Rice Flatsedge); assay type: in vivo; conditions: flooded paddy; for CYPIR: preemergence weeds, herbicidal effect rating 0-9, three to four weeks after treatment; for herbicidal effect rating, CYPIR: preemergence, rated three to four weeks after treatment
smiles,measurement,setting,value
"COc1cc(C)c(I)cc1-c1nsc2ccc(-n3c(=O)cc(C(F)(F)F)n(C)c3=O)cc12 [Example 429, 2,4(1H,3H)-Pyrimidinedione, 3-[3-(5-iodo-2-methoxy-p-tolyl)-1,2-benzisothiazol-5-yl]-1-methyl-6-(trifluoromethyl)-]","herbicidal effect rating, CYPIR",Cyperus iria [1]; Rate 0.0320 kg/ha,4.0
same,"herbicidal effect rating, CYPIR",Cyperus iria [1]; Rate 0.0620 kg/ha,6.0
same,"herbicidal effect rating, CYPIR",Cyperus iria [1]; Rate 0.1250 kg/ha,7.0
same,"herbicidal effect rating, CYPIR",Cyperus iria [1]; Rate 0.2500 kg/ha,9.0
same,"herbicidal effect rating, CYPSE",[2]; Rate 0.0320 kg/ha,0.0
same,"herbicidal effect rating, CYPSE",[2]; Rate 0.0620 kg/ha,0.0
same,"herbicidal effect rating, CYPSE",[2]; Rate 0.1250 kg/ha,0.0
same,"herbicidal effect rating, CYPSE",[2]; Rate 0.2500 kg/ha,0.0
same,ECHORC,[3]; 0.0320 kg/ha,9.0
same,ECHORC,[3]; 0.0620 kg/ha,9.0
same,ECHORC,[3]; 0.1250 kg/ha,9.0
same,ECHORC,[3]; 0.2500 kg/ha,9.0
same,"herbicidal effect rating, SAGPY","Sagittaria pygmaea, L. [4]; Rate 0.0320 kg/ha",0.0
same,"herbicidal effect rating, SAGPY","Sagittaria pygmaea, L. [4]; Rate 0.0620 kg/ha",0.0
same,"herbicidal effect rating, SAGPY","Sagittaria pygmaea, L. [4]; Rate 0.1250 kg/ha",0.0
same,"herbicidal effect rating, SAGPY","Sagittaria pygmaea, L. [4]; Rate 0.2500 kg/ha",0.0
same,SAGPY,"Sagittaria pygmaea, L. [5]; 0.0320 kg/ha",2.0
same,SAGPY,"Sagittaria pygmaea, L. [5]; 0.0620 kg/ha",2.3
same,SAGPY,"Sagittaria pygmaea, L. [5]; 0.1250 kg/ha",2.3
same,SAGPY,"Sagittaria pygmaea, L. [5]; 0.2500 kg/ha",3.0
same,ORYSAT,[6]; 0.0320 kg/ha,1.3
same,ORYSAT,[6]; 0.0620 kg/ha,2.0
same,ORYSAT,[6]; 0.1250 kg/ha,2.3
same,ORYSAT,[6]; 0.2500 kg/ha,3.0
same,CYPSE,[7]; 0.0320 kg/ha,0.0
same,CYPSE,[7]; 0.0620 kg/ha,1.0
same,CYPSE,[7]; 0.1250 kg/ha,1.0
same,CYPSE,[7]; 0.2500 kg/ha,1.0
same,"herbicidal effect rating, ECHORC",[8]; Rate 0.0320 kg/ha,4.0
same,"herbicidal effect rating, ECHORC",[8]; Rate 0.0620 kg/ha,6.0
same,"herbicidal effect rating, ECHORC",[8]; Rate 0.1250 kg/ha,6.0
same,"herbicidal effect rating, ECHORC",[8]; Rate 0.2500 kg/ha,9.0
same,"herbicidal effect rating, ORYSAT (rice tolerance)",[9]; Rate 0.0320 kg/ha,1.0
same,"herbicidal effect rating, ORYSAT (rice tolerance)",[9]; Rate 0.0620 kg/ha,1.0
same,"herbicidal effect rating, ORYSAT (rice tolerance)",[9]; Rate 0.1250 kg/ha,2.0
same,"herbicidal effect rating, ORYSAT (rice tolerance)",[9]; Rate 0.2500 kg/ha,2.0
same,MOOVA,[10]; 0.0320 kg/ha,9.0
same,MOOVA,[10]; 0.0620 kg/ha,9.0
same,MOOVA,[10]; 0.1250 kg/ha,9.0
same,MOOVA,[10]; 0.2500 kg/ha,9.0
same,"herbicidal effect rating, MOOVA",[11]; Rate 0.0320 kg/ha,2.0
same,"herbicidal effect rating, MOOVA",[11]; Rate 0.0620 kg/ha,4.0
same,"herbicidal effect rating, MOOVA",[11]; Rate 0.1250 kg/ha,7.0
same,"herbicidal effect rating, MOOVA",[11]; Rate 0.2500 kg/ha,7.0
same,CYPIR,Cyperus iria [12]; 0.0320 kg/ha,7.3
same,CYPIR,Cyperus iria [12]; 0.0620 kg/ha,7.7
same,CYPIR,Cyperus iria [12]; 0.1250 kg/ha,8.3
same,CYPIR,Cyperus iria [12]; 0.2500 kg/ha,9.0
"CON(C)C(=O)COc1ccccc1-c1nsc2ccc(-n3c(=O)cc(C(F)(F)F)n(C)c3=O)cc12 [Example 354, Acetamide, 2-{o-{5-[3,6-dihydro-3-methyl-2,6-dioxo-4-(trifluoromethyl)-1(2H)-pyrimidinyl]-1,2-benzisothiazol-3-yl}phenoxy}-N-methoxy-N-methyl-]","herbicidal effect rating, CYPIR",Cyperus iria [1]; Rate 0.0620 kg/ha,9.0
same,"herbicidal effect rating, CYPIR",Cyperus iria [1]; Rate 0.1250 kg/ha,9.0
same,"herbicidal effect rating, CYPSE",[2]; Rate 0.0320 kg/ha,1.0
same,"herbicidal effect rating, CYPSE",[2]; Rate 0.0620 kg/ha,2.0
same,"herbicidal effect rating, CYPSE",[2]; Rate 0.1250 kg/ha,9.0
same,"herbicidal effect rating, ECHORC",[3]; Rate 0.0320 kg/ha,9.0
same,"herbicidal effect rating, ECHORC",[3]; Rate 0.0620 kg/ha,9.0
same,"herbicidal effect rating, ECHORC",[3]; Rate 0.1250 kg/ha,9.0
same,"herbicidal effect rating, ECHORC",[3]; Rate 0.2500 kg/ha,9.0
same,"herbicidal effect rating, SAGPY","Sagittaria pygmaea, L. [4]; Rate 0.0320 kg/ha",0.0
same,"herbicidal effect rating, SAGPY","Sagittaria pygmaea, L. [4]; Rate 0.0620 kg/ha",2.0
same,"herbicidal effect rating, SAGPY","Sagittaria pygmaea, L. [4]; Rate 0.1250 kg/ha",9.0
same,"herbicidal effect rating, SAGPY","Sagittaria pygmaea, L. [5]; Rate 0.0320 kg/ha",6.3
same,"herbicidal effect rating, SAGPY","Sagittaria pygmaea, L. [5]; Rate 0.0620 kg/ha",9.0
same,"herbicidal effect rating, SAGPY","Sagittaria pygmaea, L. [5]; Rate 0.1250 kg/ha",9.0
same,"herbicidal effect rating, SAGPY","Sagittaria pygmaea, L. [5]; Rate 0.2500 kg/ha",9.0
same,herbicidal effect rating ORYSAT,[6]; Rate 0.0320 kg/ha,7.3
same,herbicidal effect rating ORYSAT,[6]; Rate 0.0620 kg/ha,8.0
same,herbicidal effect rating ORYSAT,[6]; Rate 0.1250 kg/ha,9.0
same,herbicidal effect rating ORYSAT,[6]; Rate 0.2500 kg/ha,9.0
same,"herbicidal effect rating, CYPSE",[7]; Rate 0.0320 kg/ha,8.0
same,"herbicidal effect rating, CYPSE",[7]; Rate 0.0620 kg/ha,9.0
same,"herbicidal effect rating, CYPSE",[7]; Rate 0.1250 kg/ha,9.0
same,"herbicidal effect rating, CYPSE",[7]; Rate 0.2500 kg/ha,9.0
same,"herbicidal effect rating, ECHORC",[8]; Rate 0.0320 kg/ha,4.0
same,"herbicidal effect rating, ECHORC",[8]; Rate 0.0620 kg/ha,7.0
same,"herbicidal effect rating, ECHORC",[8]; Rate 0.1250 kg/ha,9.0
same,"herbicidal effect rating, ORYSAT (rice tolerance)",[9]; Rate 0.0620 kg/ha,6.0
same,"herbicidal effect rating, ORYSAT (rice tolerance)",[9]; Rate 0.1250 kg/ha,6.0
same,"herbicidal effect rating, MOOVA",[10]; Rate 0.0320 kg/ha,9.0
same,"herbicidal effect rating, MOOVA",[10]; Rate 0.0620 kg/ha,9.0
same,"herbicidal effect rating, MOOVA",[10]; Rate 0.1250 kg/ha,9.0
same,"herbicidal effect rating, MOOVA",[10]; Rate 0.2500 kg/ha,9.0
same,"herbicidal effect rating, MOOVA",[11]; Rate 0.0320 kg/ha,6.0
same,"herbicidal effect rating, MOOVA",[11]; Rate 0.0620 kg/ha,9.0
same,"herbicidal effect rating, MOOVA",[11]; Rate 0.1250 kg/ha,9.0
same,"herbicidal effect rating, CYPIR",Cyperus iria [12]; Rate 0.0320 kg/ha,8.3
same,"herbicidal effect rating, CYPIR",Cyperus iria [12]; Rate 0.0620 kg/ha,9.0
same,"herbicidal effect rating, CYPIR",Cyperus iria [12]; Rate 0.1250 kg/ha,9.0
same,"herbicidal effect rating, CYPIR",Cyperus iria [12]; Rate 0.2500 kg/ha,9.0
